Test results published in patent US10899769B2, “Imidazopiperazinone inhibitors of transcription activating proteins” (Board of Regents, The University of Texas System, priority 2018, dated 2021).

Key:
[1] = molecular target: GST-CBP(1081-1197) bromodomain (Homo sapiens (Human), UniProt Q92793); experiment: CBP AlphaScreen Assay; conditions: binding to biotin-H4(1-21) Ac-K5/8/12/16
Procedure, shortened: (§1)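 AlphaScreen binding of GST-bromodomain to biotin-H4(1-21) Ac-K5/8/12/16: 5 nM CBP with 20 nM peptide, or 2.5 nM BRD4 with 10 nM peptide, in 50 mM HEPES 7.5, […], 1 mM TCEP, 0.003% Tween-20. Compound preincubated 30 min, then beads 2 h, room temperature. IC50 from variable-slope fit.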

BRD4(49-170) bromodomain = BRD4(49-170) bromodomain (Homo sapiens (Human), UniProt O60885); experiment: BRD4 AlphaScreen Assay; conditions: binding to biotin-H4(1-21) Ac-K5/8/12/16
Procedure, shortened: as §1

Chain of GST-CBP(1081-1197) bromodomain (Q92793 1081-1197): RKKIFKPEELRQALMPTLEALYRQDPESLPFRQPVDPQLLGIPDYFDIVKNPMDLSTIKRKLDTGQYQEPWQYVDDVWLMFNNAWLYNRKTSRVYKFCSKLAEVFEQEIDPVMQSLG

IC50 [1] [nM] | IC50 (BRD4(49-170) bromodomain) [nM] | Structure (SMILES)
13 | 1530 | CC1C(=O)N(C)Cc2c(-c3cccc4nc(-c5cn(C)cn5)c(C(F)F)cc34)nc(C3CC3)n21 (centres unmarked) [Example 69, 3-cyclopropyl-1-(3-(difluoromethyl)-2-(1-methyl-1H-imidazol-4-yl)quinolin-5-yl)-5,7-dimethyl-7,8-dihydroimidazo[1,5-a] pyrazin-6(5H)-one]
2 | 667 | Cc1cn(-c2cc3cccc(-c4nc(C5CC5)n5c4CN(C)C(=O)C5C)c3cn2)cn1 (centres unmarked) [Example 70, 3-cyclopropyl-5,7-dimethyl-1-(3-(4-methyl-1H-imidazol-1-yl)isoquinolin-8-yl)-7,8-dihydroimidazo[1,5-a] pyrazin-6(5H)-one]
4 | 868 | Cc1ncn(-c2cc3cccc(-c4nc(C5CC5)n5c4CN(C)C(=O)C5C)c3cn2)n1 (centres unmarked) [Example 71, 3-cyclopropyl-5,7-dimethyl-1-(3-(3-methyl-1H-1,2,4-triazol-1-yl)isoquinolin-8-yl)-7,8-dihydroimidazo[1,5-a] pyrazin-6(5H)-one]
2 | 297 | Cc1cn(-c2cc3cccc(-c4nc(C5CC5)n5c4CN(C)C(=O)C5C)c3cn2)nc1C (centres unmarked) [Example 72, 3-cyclopropyl-1-(3-(3,4-dimethyl-1H-pyrazol-1-yl)isoquinolin-8-yl)-5,7-dimethyl-7,8-dihydroimidazo[1,5-a] pyrazin-6(5H)-one]
3 | 408 | Cc1ccn(-c2cc3cccc(-c4nc(C5CC5)n5c4CN(C)C(=O)C5C)c3cn2)n1 (centres unmarked) [Example 73, 3-cyclopropyl-5,7-dimethyl-1-(3-(3-methyl-1H-pyrazol-1-yl)isoquinolin-8-yl)-7,8-dihydroimidazo[1,5-a] pyrazin-6(5H)-one]
4 | 179 | CC1C(=O)N(C)Cc2c(-c3cccc4nc(-c5ncco5)c(C(F)F)cc34)nc(C3CC3)n21 (centres unmarked) [Example 74, 3-cyclopropyl-1-(3-(difluoromethyl)-2-(oxazol-2-yl)quinolin-5-yl)-5,7-dimethyl-7,8-dihydroimidazo[1,5-a] pyrazin-6(5H)-one]
172 | 12000 | CC1C(=O)N(C)Cc2c(-c3cccc4nc(-c5cnn(C)c5)c(C(F)F)cc34)nc(C3CCNCC3)n21 (centres unmarked) [Example 75, 1-(3-(difluoromethyl)-2-(1-methyl-1H-pyrazol-4-yl)quinolin-5-yl)-5,7-dimethyl-3-(piperidin-4-yl)-7,8-dihydroimidazo[1,5-a] pyrazin-6(5H)-one]
2 | 384 | CC1C(=O)N(C)Cc2c(-c3cccc4cc(-c5cn(C)cn5)ncc34)nc(C3CC3)n21 (centres unmarked) [Example 76, 3-cyclopropyl-5,7-dimethyl-1-(3-(1-methyl-1H-imidazol-4-yl)isoquinolin-8-yl)-7,8-dihydroimidazo[1,5-a] pyrazin-6(5H)-one]
34 | 2890 | CC1C(=O)N(C)Cc2c(-c3cccc4nc(-c5cnn(C)c5)c(C(F)F)cc34)nc(C3CCN(CC(F)(F)F)CC3)n21 (centres unmarked) [Example 77, 1-(3-(difluoromethyl)-2-(1-methyl-1H-pyrazol-4-yl)quinolin-5-yl)-5,7-dimethyl-3-(1-(2,2,2-trifluoroethyl)piperidin-4-yl)-7,8-dihydroimidazo [1,5-a] pyrazin-6(5H)-one]
41 | 3770 | CC1C(=O)N(C)Cc2c(-c3cccc4nc(-c5cnn(C)c5)c(C(F)F)cc34)nc(C3CCN(CC(F)F)CC3)n21 (centres unmarked) [Example 78, 3-(1-(2,2-difluoroethyl)piperidin-4-yl)-1-(3-(difluoromethyl)-2-(1-methyl-1H-pyrazol-4-yl)quinolin-5-yl)-5,7-dimethyl-7,8-dihydroimidazo[1,5-a] pyrazin-6(5H)-one]
39 | 2430 | CNC(=O)N1CCC(c2nc(-c3cccc4nc(-c5cnn(C)c5)c(C(F)F)cc34)c3n2C(C)C(=O)N(C)C3)CC1 (centres unmarked) [Example 79, 4-(1-(3-(difluoromethyl)-2-(1-methyl-1H-pyrazol-4-yl)quinolin-5-yl)-5,7-dimethyl-6-oxo-5,6,7,8-tetrahydroimidazo[1,5-a]pyrazin-3-yl)-N-methylpiperidine-1-carboxamide]
45 | 2560 | CC(=O)N1CCC(c2nc(-c3cccc4nc(-c5cnn(C)c5)c(C(F)F)cc34)c3n2C(C)C(=O)N(C)C3)CC1 (centres unmarked) [Example 80, 3-(1-acetylpiperidin-4-yl)-1-(3-(difluoromethyl)-2-(1-methyl-1H-pyrazol-4-yl)quinolin-5-yl)-5,7-dimethyl-7,8-dihydroimidazo[1,5-a] pyrazin-6(5H)-one]

Second part, the compound before the results:

Structure (SMILES) | IC50 [1] [nM] | IC50 (BRD4(49-170) bromodomain) [nM]
CC1C(=O)N(C)Cc2c(N3CCCc4cc(-c5cnn(C)c5)c(C(F)F)cc43)nc(C3CC3)n21 (centres unmarked) [Example 49, 3-cyclopropyl-1-(7-(difluoromethyl)-6-(1-methyl-1H-pyrazol-4-yl)-3,4-dihydroquinolin-1(2H)-yl)-5,7-dimethyl-7,8-dihydroimidazo[1,5-a] pyrazin-6(5H)-one] | 1 | 332
CC1C(=O)N(C)Cc2c(-c3ccc4c(cnn4C)c3)nc(C3CC3)n21 (centres unmarked) [Example 50, 3-cyclopropyl-5,7-dimethyl-1-(1-methyl-1H-indazol-5-yl)-7,8-dihydroimidazo[1,5-a] pyrazin-6(5H)-one] | 155 | 1180
CC1C(=O)N(C)Cc2c(-c3ccc4sccc4c3)nc(C3CC3)n21 (centres unmarked) [Example 52, 1-(benzo[b]thiophen-5-yl)-3-cyclopropyl-5,7-dimethyl-7,8-dihydroimidazo[1,5-a] pyrazin-6(5H)-one] | 94 | 487
CC1C(=O)N(C)Cc2c(-c3ccc4ccncc4c3)nc(C3CC3)n21 (centres unmarked) [Example 53, 3-cyclopropyl-1-(isoquinolin-7-yl)-5,7-dimethyl-7,8-dihydroimidazo[1,5-a] pyrazin-6(5H)-one] | 159 | 2960
CC1C(=O)N(C)Cc2c(-c3ccc4cncn4c3)nc(C3CC3)n21 (centres unmarked) [Example 54, 3-cyclopropyl-1-(imidazo[1,5-a]pyridin-6-yl)-5,7-dimethyl-7,8-dihydroimidazo[1,5-a] pyrazin-6(5H)-one] | 751 | 2100
CC1C(=O)N(C)Cc2c(-c3cccc4cc(C5=CCOCC5)ncc34)nc(C3CC3)n21 (stereo not drawn) [Example 55, 3-cyclopropyl-l-(3-(3,6-dihydro-2H-pyran-4-yl)isoquinolin-8-yl)-5,7-dimethyl-7,8-dihydroimidazo[1,5-a] pyrazin-6(5H)-one] | 2 | 392
CC1C(=O)N(C)Cc2c(-c3ccn4cncc4c3)nc(C3CC3)n21 (centres unmarked) [Example 57, 3-cyclopropyl-1-(imidazo[1,5-a]pyridin-7-yl)-5,7-dimethyl-7,8-dihydroimidazo[1,5-a] pyrazin-6(5H)-one] | 1070 | 2610
CC1C(=O)N(C)Cc2c(-c3cccc4cc(C5CCOCC5)ncc34)nc(C3CC3)n21 (centres unmarked) [Example 58, 3-cyclopropyl-5,7-dimethyl-1-(3-(tetrahydro-2H-pyran-4-yl)isoquinolin-8-yl)-7,8-dihydroimidazo[1,5-a] pyrazin-6(5H)-one] | 2 | 188
Cc1c(-c2cc3cccc(-c4nc(C5CC5)n5c4CN(C)C(=O)C5C)c3cn2)cnn1C (centres unmarked) [Example 59, 3-cyclopropyl-1-(3-(1,5-dimethyl-1H-pyrazol-4-yl)isoquinolin-8-yl)-5,7-dimethyl-7,8-dihydroimidazo[1,5-a] pyrazin-6(5H)-one] | 4 | 496
Cc1c(-c2nc3cccc(-c4nc(C5CC5)n5c4CN(C)C(=O)C5C)c3cc2C(F)F)cnn1C (centres unmarked) [Example 61, 3-cyclopropyl-1-(3-(difluoromethyl)-2-(1,5-dimethyl-1H-pyrazol-4-yl)quinolin-5-yl)-5,7-dimethyl-7,8-dihydroimidazo[1,5-a] pyrazin-6(5H)-one] | 4 | 511
CC1C(=O)N(C)Cc2c(-c3cccc4cc(-c5ccn(C)n5)ncc34)nc(C3CC3)n21 (stereo not drawn) [Example 62, 3-cyclopropyl-5,7-dimethyl-1-(3-(l-methyl-1H-pyrazol-3-yl)isoquinolin-8-yl)-7,8-dihydroimidazo[1,5-a] pyrazin-6(5H)-one] | 2 | 164
Cc1nn(C)cc1-c1cc2cccc(-c3nc(C4CC4)n4c3CN(C)C(=O)C4C)c2cn1 (centres unmarked) [Example 63, 3-cyclopropyl-1-(3-(1,3-dimethyl-1H-pyrazol-4-yl)isoquinolin-8-yl)-5,7-dimethyl-7,8-dihydroimidazo[1,5-a] pyrazin-6(5H)-one] | 1 | 76
Cc1nn(C)cc1-c1nc2cccc(-c3nc(C4CC4)n4c3CN(C)C(=O)C4C)c2cc1C(F)F (centres unmarked) [Example 65, 3-cyclopropyl-1-(3-(difluoromethyl)-2-(1,3-dimethyl-1H-pyrazol-4-yl)quinolin-5-yl)-5,7-dimethyl-7,8-dihydroimidazo[1,5-a] pyrazin-6(5H)-one] | 17 | 426
CC1C(=O)N(C)Cc2c(-c3cccc4cc(-c5ncco5)ncc34)nc(C3CC3)n21 (centres unmarked) [Example 66, 3-cyclopropyl-5,7-dimethyl-1-(3-(oxazol-2-yl)isoquinolin-8-yl)-7,8-dihydroimidazo[1,5-a] pyrazin-6(5H)-one] | 11 | 1590
Cc1ncn(-c2nc3cccc(-c4nc(C5CC5)n5c4CN(C)C(=O)C5C)c3cc2C(F)F)n1 (centres unmarked) [Example 67, 3-cyclopropyl-1-(3-(difluoromethyl)-2-(3-methyl-1H-1,2,4-triazol-1-yl)quinolin-5-yl)-5,7-dimethyl-7,8-dihydroimidazo[1,5-a] pyrazin-6(5H)-one] | 3 | 319
Cc1ncc(-c2nc3cccc(-c4nc(C5CC5)n5c4CN(C)C(=O)C5C)c3cc2C(F)F)s1 (centres unmarked) [Example 68, 3-cyclopropyl-1-(3-(difluoromethyl)-2-(2-methylthiazol-5-yl)quinolin-5-yl)-5,7-dimethyl-7,8-dihydroimidazo[1,5-a] pyrazin-6(5H)-one] | 5 | 163
